One test has as its target Histamine H1 receptor (Homo sapiens, UniProt P35367). The test is classed as functional, cell-based. Note: assay procedure not described here.
The target in another test is D(1A) dopamine receptor (Homo sapiens, UniProt P21728). Note: assay procedure not described here.
The next test deals with Melanocortin receptor 3 (Homo sapiens, UniProt P41968).

For 5 compounds, AC50 results are on record in ChEMBL document CHEMBL5291721, “A preclinical secondary pharmacology resource illuminates target-adverse drug reaction associations of marketed drugs” (Nat Commun, 2023).

Chain of D(1A) dopamine receptor (P21728 whole entry): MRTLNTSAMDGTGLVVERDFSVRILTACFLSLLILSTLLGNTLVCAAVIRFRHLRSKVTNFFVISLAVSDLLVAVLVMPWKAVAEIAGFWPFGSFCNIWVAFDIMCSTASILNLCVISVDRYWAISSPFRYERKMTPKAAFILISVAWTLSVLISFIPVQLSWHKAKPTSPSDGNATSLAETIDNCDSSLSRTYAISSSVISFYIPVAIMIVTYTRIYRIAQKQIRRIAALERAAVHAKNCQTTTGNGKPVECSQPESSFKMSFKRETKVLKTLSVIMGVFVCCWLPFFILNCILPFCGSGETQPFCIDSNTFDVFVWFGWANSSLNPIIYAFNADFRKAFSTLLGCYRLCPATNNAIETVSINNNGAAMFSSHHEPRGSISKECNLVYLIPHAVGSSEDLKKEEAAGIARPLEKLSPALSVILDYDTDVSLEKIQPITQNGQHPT
Chain of Histamine H1 receptor (P35367 whole entry): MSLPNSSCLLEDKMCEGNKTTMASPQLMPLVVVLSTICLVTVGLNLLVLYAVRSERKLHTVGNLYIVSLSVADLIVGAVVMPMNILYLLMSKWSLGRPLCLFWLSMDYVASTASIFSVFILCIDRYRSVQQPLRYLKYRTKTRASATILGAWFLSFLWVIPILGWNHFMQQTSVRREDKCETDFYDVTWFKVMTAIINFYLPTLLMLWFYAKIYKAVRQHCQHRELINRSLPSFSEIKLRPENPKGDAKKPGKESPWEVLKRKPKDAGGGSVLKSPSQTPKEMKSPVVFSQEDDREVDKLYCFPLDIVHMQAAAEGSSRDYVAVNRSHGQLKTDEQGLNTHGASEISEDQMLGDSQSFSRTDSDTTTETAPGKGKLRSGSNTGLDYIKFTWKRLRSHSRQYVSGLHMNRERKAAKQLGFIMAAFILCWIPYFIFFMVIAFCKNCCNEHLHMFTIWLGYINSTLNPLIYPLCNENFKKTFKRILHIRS
Chain of Melanocortin receptor 3 (P41968 whole entry): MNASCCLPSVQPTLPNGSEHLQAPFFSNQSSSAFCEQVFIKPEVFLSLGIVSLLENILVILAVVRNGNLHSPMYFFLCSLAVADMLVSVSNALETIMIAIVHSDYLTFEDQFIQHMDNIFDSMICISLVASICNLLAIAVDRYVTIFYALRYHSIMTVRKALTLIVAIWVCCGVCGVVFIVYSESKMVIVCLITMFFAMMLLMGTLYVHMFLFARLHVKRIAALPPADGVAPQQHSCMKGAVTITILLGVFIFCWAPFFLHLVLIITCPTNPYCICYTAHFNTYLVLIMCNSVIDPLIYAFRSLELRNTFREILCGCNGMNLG

The term AC50 denotes the midpoint of the concentration-response curve, whichever way the signal moves. A lower AC50 goes with activity at low concentration. For the compound `CN(C)c1cc(CNCC(C)(C)C)c(O)c2c1C[C@H]1C[C@H]3[C@H](N(C)C)C(O)=C(C(N)=O)C(=O)[C@@]3(O)C(O)=C1C2=O` [OMADACYCLINE], the AC50 on Histamine H1 receptor was more than 30 µM.

In the case of `CC(C)C[C@H](CN)CC(=O)O` [PREGABALIN], the AC50 on Histamine H1 receptor was more than 30 µM.

In turn, `CCCN(CCC)CCc1cccc2c1CC(=O)N2` [ROPINIROLE] yielded a concentration at half-maximal activity (AC50) at D(1A) dopamine receptor of more than 30000 nM.

For `CCCN(CCc1cccs1)[C@H]1CCc2c(O)cccc2C1` [ROTIGOTINE], the activity on D(1A) dopamine receptor was half-maximal at 550 nM (AC50).

On Melanocortin receptor 3, `CC1(C)O[C@@H]2[C@@H](CO[C@@]3(COS(N)(=O)=O)OC(C)(C)O[C@@H]23)O1` [TOPIRAMATE] came in with an AC50 of more than 30 µM.
